What was measured:
[1] = biological target: T1, Neuropeptide Y receptor type 5 (Mus musculus, UniProt O70342); assay: Inhibitory concentration against mouse NPY5 receptor […]
T1 sequence (O70342 whole entry): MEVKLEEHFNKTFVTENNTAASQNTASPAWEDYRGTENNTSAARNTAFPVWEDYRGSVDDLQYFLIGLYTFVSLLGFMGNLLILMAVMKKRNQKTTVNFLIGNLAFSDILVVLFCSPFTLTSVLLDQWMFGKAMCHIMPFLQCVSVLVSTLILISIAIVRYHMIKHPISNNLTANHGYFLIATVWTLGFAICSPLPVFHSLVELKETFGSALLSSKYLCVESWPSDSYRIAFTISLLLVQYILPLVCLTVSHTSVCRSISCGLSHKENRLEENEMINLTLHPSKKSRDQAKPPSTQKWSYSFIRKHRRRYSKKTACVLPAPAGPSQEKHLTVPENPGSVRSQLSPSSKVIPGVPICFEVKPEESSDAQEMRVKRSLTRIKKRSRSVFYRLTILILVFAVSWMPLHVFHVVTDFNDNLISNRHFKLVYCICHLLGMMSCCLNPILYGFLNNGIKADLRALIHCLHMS

[2] = biological target: T2, Neuropeptide Y receptor type 5 (Mus musculus) (UniProt O70342); assay: Percent inhibition against mouse NPY5 receptor at 1 um
T2 sequence (whole entry): T1 sequence (O70342 whole entry)

IC50 [1]	inhibition [2]	SMILES
9900 nM	–	Cc1ccccc1C(=O)c1cnc(NCCCNS(=O)(=O)c2ccc(F)cc2)s1
11 nM	–	COc1cccc(S(=O)(=O)NCCCNc2ncc(C(=O)c3ccccc3C)s2)c1
5.5 nM	–	Cc1ccccc1C(=O)c1cnc(NCCCNS(=O)(=O)c2cccc(F)c2)s1
1.6 nM	–	COc1ccc(OC)c(S(=O)(=O)NCCCNc2ncc(C(=O)c3ccccc3C)s2)c1
0.71 nM	–	COc1ccc(C)cc1S(=O)(=O)NCCCNc1ncc(C(=O)c2ccccc2C)s1
17 nM	–	COc1ccc(OC)c(S(=O)(=O)NCCCNc2nc(C(=O)c3ccccc3C)cs2)c1
–	16%	Cc1ccccc1C(=O)c1csc(NCCCNS(=O)(=O)c2ccc(F)cc2)n1
64 nM	–	Cc1ccccc1C(=O)c1csc(NCCCNS(=O)(=O)c2cccc(F)c2)n1
9 nM	–	Cc1ccccc1C(=O)c1csc(NCCCNS(=O)(=O)c2cc(C(F)(F)F)ccc2Cl)n1
11 nM	–	Cc1ccccc1C(=O)c1csc(NCCCNS(=O)(=O)c2cccs2)n1
0.85 nM	–	Cc1ccccc1C(=O)c1cnc(NCCCNS(=O)(=O)c2cc(C(F)(F)F)ccc2Cl)s1
1 nM	–	Cc1ccccc1C(=O)c1cnc(NCCCNS(=O)(=O)c2cccs2)s1
–	12%	COc1cccc(S(=O)(=O)NCCCNc2nc(C(=O)c3ccccc3C)cs2)c1

Source: ChEMBL document CHEMBL1140259, “Isomeric thiazole derivatives as ligands for the neuropeptide Y5 receptor” (Bioorg Med Chem Lett, 2005)
